Data published in patent publication US20240325760A1, “METHODS FOR DETECTING AND PREVENTING ALZHEIMER'S DISEASE AND MILD COGNITIVE IMPAIRMENT” (RAMOT AT TEL-AVIV UNIVERSITY LTD., priority 2021, published 2024).
Values joined by “and” are separate entries in the source; they are usually repeats but may differ in a detail not shown here. Equal values may be shown once. “Also recorded” adds a separate entry of the source.

Legend:
[1] = test system: anesthetized APP/PS1 mice; test: LFP recording of epileptiform high-voltage CA1 spikes under anesthesia; type: in vivo
Procedure: For intracerebroventricular (ICV) ainjections, a small hole was drilled in the skull above the left lateral ventricle (0.7 mm posterior, 1.2 mm lateral to bregma), and a 5 mm guide cannula was slowly inserted into the ventricle and fixed to the skull by dental cement (C&B Metabond, Parkell). The guide cannula was sealed with a 5 mm sterile metal bar to prevent CSF leakage and possible infections. 1-2 weeks after the surgery, the mice received ICV injections using a 10 μl syringe (Hamilton). The mice were injected with 1 μl containing 27 μg of teriflunomide (TERI), dissolved in DMSO or vehicle (1 μl of DMSO) with speed of 0.15 μl/min (Nano Jet stereotaxic syringe pump).
LFP/fEPSP recordings. Small diameter holes were drilled in the skull at the position of the recording and stimulating electrodes. […] Ground electrode was screwed to the skull above the cerebellum. Test stimuli of 50-100 μA were delivered to the SC at 0.06 Hz to verify the proper location of the electrodes and to estimate the stability of the signal. The electrodes were firmly fixed to the skull by dental cement (C&B Metabond, Parkell) and dental acrylic. Operated mice recovered in their home cage for at least a week following electrodes implantation. For evoked field excitatory postsynaptic potential (fEPSP) recordings in CA3-CA1 synapses in awake mice (FIGS. 1F-1G), mice were habituated for a few days to the experimental device that was composed from a running wheel and metal bar in which the mice were head fixed into throughout the experiment with a screw. Following habituation, the mice were head fixed to the experimental device, and CA3-CA1 fEPSP measurements were taken 30 minutes after.
Ca^2+ imaging and LFP recording in anesthetized mice. For Ca^2+ imaging and LFP recording sessions during anesthesia, mice were placed in an induction chamber connected to isoflurane vaporizer (Isotec 5), gas flow rate was turned on to 0.8 LPM (litre per minute) and the vaporizer was set at 5% isoflurane. […] Respiration and heart rate were monitored and analyzed by the physiological monitoring system. […] Temperature was also maintained by the device at 37° C. throughout the procedure.
Detection of pathological spikes in fAD models. High-voltage pathological spikes were detected by setting a threshold of 10 z-scores above and below the mean voltage during the suppression epochs of the recording and accepted only if their peak-to-peak value within 30 ms was greater than 10 z-scores. A dead-time of 50 ms was set to assure the same spike was not counted twice. Subsequently, all spikes were manually inspected and approved.

nRE-CA1 synapses = test: nRE-CA1 synaptic transmission in APP/PS1 mice expressing hM4D(Gi)-mCherry; type: in vivo, mouse; conditions: data not shown
[2] = test system: cultured hippocampal neurons (hippocampal networks ex vivo); test: Mean firing rate (MFR) of hippocampal cultures on multi-electrode arrays; type: cell-based, mouse; conditions: for network MFR after isoflurane application: isoflurane 1%, 24 hour
Procedure: Multi-electrode array (MEA). Postnatal hippocampal cultures were plated on MEA plates containing 120 titanium nitride (TiN) electrodes, in addition to 4 internal reference and 4 ground electrodes (Styr et al., 2019). Each electrode has a diameter of 30 μm and electrodes are arranged in a 12×12 grid (sparing 6 electrodes in each corner), spaced 100-200 μm apart on average (Multi Channel Systems, 120MEA200/30iR-Ti). Data acquisition was done in 3-weeks-old cultures using a standard MEA2100-Systems with a hardware filter cut-off of 3.3 kHz and sampling rate of 10 kHz per electrode. Recordings were carried out under constant 37° C. and 5% CO2 levels.
Data analysis: Raw data was filtered, offline, at 200 Hz using a Butterworth high-pass filter. Spikes were then detected, offline, using MC_Rack software (Multi Channel Systems) based on a fixed threshold set to between 5-6 standard deviations from mean. Twenty minutes of each hour (that were previously shown to reliably represent the MFR of the entire hour, were used for analysis to reduce processing time and analyzed using custom-written scripts in MATLAB (Mathworks) as previously described (Slomowitz et al., 2015). Channels with unstable (>30% change of MFR) baseline recordings during 3-4 hours prior to a perturbation were excluded from the analysis.

[3] = test system: CA3-CA1 synaptic connections in hippocampal slices; test: Dose-response of TERI on fEPSP amplitude in acute hippocampal slices; type: cell-based, mouse
Procedure: Electrophysiology in slices. Acute hippocampal slices (coronal, 400 μm) were prepared from WT and APP/PS1 mice. Slices were transferred to a submerged recovery chamber at 32° C. containing oxygenated (95% O2 and 5% CO2) artificial cerebrospinal fluid (ACSF) for 1 h before the experiment. The ACSF contained, in mM: NaCl, 125; KCl, 2.5; CaCl2, 1.2; MgCl2, 1.2; NaHCO3, 25; NaH2PO4, 1.25; glucose, 25. fEPSPs were recorded in acute hippocampal slices with a glass pipette containing Tyrode solution (1-2 MΩ) from synapses in the CA1 using a MultiClamp700B amplifier (Molecular Devices). Stimulation of the Shaffer Collateral (SC) pathway was delivered through a glass suction electrode (10-20 μm tip) filled with Tyrode. Data were analyzed using pClamp10 (Molecular Devices).

[4] = test system: CA1 neuronal populations of WT and APP/PS1 mice; test: Ca2+ imaging of CA1 population activity under anesthesia; type: in vivo, mouse
APP/PS1 mice = test: Spatial working memory, delta-maze alternation test after general anesthesia; type: in vivo, mouse; conditions: 4-5-month-old APP/PS1 mice; isoflurane inhalation 1.5%, 3 hour; 10, 20 and 60 sec delays

C[N+]1([O-])CCN(C2=Nc3cc(Cl)ccc3Nc3ccccc32)CC1 [CNO]
decrease in the rate of epileptiform CA1 spikes vs vehicle ([1]; i.p. 5 mg/kg, anesthetized APP/PS1 mice expressing hM4D(Gi)-mCherry in nRE-CA1 synapses): ~53%
nRE-CA1 synaptic transmission (nRE-CA1 synapses): suppressed

C/C(O)=C(\C#N)C(=O)Nc1ccc(C(F)(F)F)cc1 [TERI, (2Z)-2-cyano-3-hydroxy-N-[4-(trifluoromethyl)phenyl]but-2-enamide]
negative regulation of MFR set points by TERI ([2]; APP/PS1 networks ex vivo, data not shown): preserved
reduction in the frequency of high-voltage CA1 spikes vs baseline ([1]; ICV 27 μg in 1 μl, anesthetized APP/PS1 mice): ~50% and 50.7±7.2%
frequency of high-voltage spikes after TERI ICV injection ([1]; ICV 27 μg in 1 μl, baseline 7.6±1.4 per min, n=9 anesthetized APP/PS1 mice): 3.8±0.95 per min
IC50 ([3]; Mus musculus, hippocampal slices of APP/PS1 mice): 19.1 µM
IC50 ([3]; Mus musculus, hippocampal slices of WT mice): 17.6 µM
IC50 ([3]; hippocampal slices of APP/PS1 mice): 19.2 ± 1 µM

NC1=N[C@H](O)[C@H]2[C@H]3O[C@]4(O)O[C@@H]([C@@H](O)[C@@]2(N1)[C@@H]4O)[C@]3(O)CO [TTX, tetrodotoxin]
rate of epileptiform CA1 spikes vs baseline ([1]; mouse, in vivo): profound decrease; also recorded: reduction

NCC(CC(=O)O)c1ccc(Cl)cc1 (stereo not shown) [baclofen]
MFR homeostatic response to chronic inactivity ([2]; baclofen 10 μM, WT and APP/PS1 networks, first day of perturbation): homeostatically compensated

COc1ccc(-c2ccc(=N)n(CCCC(=O)O)n2)cc1 [gabazine]
MFR renormalization following 2 days of gabazine application ([2]; 30 μM, APP/PS1 neurons): disrupted
population firing rate on gabazine application (acute) ([2]; 30 μM, WT networks): fast and pronounced increase
MFR following 2 days of gabazine application ([2]; 30 μM, WT neurons): renormalized to the baseline level

FC(F)OC(Cl)C(F)(F)F (stereo not shown) [isoflurane]
network MFR after isoflurane application ([2]; APP/PS1 cultures): 112.5±8.7 % of baseline
network MFR after isoflurane application ([2]; WT cultures): 42.0±0.9 % of baseline
epileptiform high-voltage spikes in CA1 ([1]; 4-5 months old APP/PS1 mice under general anesthesia (1.5% isoflurane)): 3.22±0.51 per min
CA1 activity under anesthesia ([4]; APP/PS1 mice): maintained constant
suppression of total CA1 activity ([4]; WT mice, deep anesthesia (1.5% isoflurane)): ~87%
suppression of total CA1 activity ([4]; WT mice, moderate anesthesia (1% isoflurane)): ~57%
choice accuracy in delta maze following anesthesia (APP/PS1 mice): decrease in choice accuracy

Cc1cccc(C(C)c2cnc[nH]2)c1C (stereo not shown) [medetomidine]
CA1 activity under anesthesia ([4]; APP/PS1 mice): much lower level of suppression
CA1 activity under anesthesia ([4]; WT mice, data not shown): pronounced inhibition of CA1 activity
